Data set [1] in a line: Chemical stability in solvent / acidic conditions. Type of data set: physicochemical. On the procedure: Ethyl chloroformate is then added dropwise. The reaction goes to completion in minutes upon the addition of the chloroformate forming one regioisomer in very high yield. […] Results are summarized in Scheme 1
The subject of data set [2] is P. yoelii (Kenya strain, MR4 MRA-428). Briefly: Single dose cure (SDC) of patent blood stage murine malaria infection. The following applies: mice; for minimal effective dose: Plasmodium yoelii, po, 720 h, single dose, read-out: Lowest fully effective single dose cure P. yoelii; for lowest fully protective single-dose cure (SDC): single oral dose in PEG-400, parasite free 30 days. Type of data set: in vivo, Plasmodium yoelii. On the procedure:
As described above, mice (female, CF1, Charles River Labs) were infected intravenously with 10^5 P. yoelii (Kenya strain, MR4 MRA-428/Murine LDH Elevating Virus-Free) parasitized erythrocytes from a donor animal. Drug administration commenced the day after the animals were inoculated (Day 1). The test compounds were dissolved in PEG-400 and administered by oral gavage once. On the 5th day blood films were prepared and the extent of parasitemia was determined by microscopic examination of Giemsa stained smears. Animals remaining parasite free 30 days after the last drug dose were considered cured of their infection.

Another data set relates to P. falciparum strain D6. Description: SYBR green antiplasmodial assay, strain D6. Type of data set: cell-based, Plasmodium falciparum.
Data set [3] relates to P. falciparum strain Tm90-C2B. Description: SYBR green antiplasmodial assay, strain Tm90-C2B. Type of data set: cell-based, Plasmodium falciparum. Conditions: read-out: IC50, nM, P. falciparum strain Tm90-C2B.
Description: (§1) Automated pipetting and dilution was carried out with the aid of a programmable Precision 2000 robotic station (BioTek, Winooski, Vt.). An initial parasitemia of 0.2% was obtained by addition of normal uninfected red cells to a stock culture of asynchronous parasite infected red cells (PRBC).
A further data set relates to P. falciparum strain Dd2. Briefly: SYBR green antiplasmodial assay, strain Dd2. The following applies: read-out: IC50, nM, P. falciparum strain Dd2. Type of data set: cell-based, Plasmodium falciparum.
Data set [4] can be described thus: Oral bioavailability in rats. Type of data set: in vivo. The following applies: relative to ELQ-300.
A short description of data set [5]: Oral bioavailability in mice. Type of data set: in vivo. The following applies: relative to ELQ-300.
Another data set concerns P. falciparum. Description: In vitro intrinsic antiplasmodial activity against all test strains. Type of data set: cell-based, Plasmodium falciparum.
The next data set has as its system P. yoelii. Description: 4-day suppression test in P. yoelii infected mice. Type of data set: in vivo, Plasmodium yoelii. The following applies: dosing on 4 sequential days, smears on Day 5.
The conditions of data set [6]: human, microsomes.
Description: The loss of substrate was monitored by LC/MS/MS. Midazolam was monitored as a well characterized positive control. Midazolam represents a drug with comparatively low metabolic stability. Incubations were conducted in the absence of the NADPH regenerating system to monitor for potential P450-independent metabolism.
Data set [7] can be described thus: Stability of prodrug to metabolism.
Data set [8] is described as follows: In vivo efficacy of earlier prodrug versus parent compound. The following applies: compared to the parent compound ELQ-300.
Data set [9] has as its target Plasmodium falciparum cytochrome bc1 complex (Plasmodium falciparum, UniProt Q02768). Description: Inhibition of cytochrome bc1 complex. Type of data set: biochemical.
Where [10] appears, read: Plasmodium falciparum, D6; read-out: P. falciparum strain D6, IC50.
[11] abbreviates: Plasmodium falciparum, TM90, 72 h, resistant to chloroquine and atovaquone.
Setting [12] is: Plasmodium falciparum, DD2, 72 h, multidrug resistant strain.
The mark [13] stands for this setting: Plasmodium falciparum, D6, 72 h; read-out: IC50, nM, P. falciparum strain D6.
[14] abbreviates: 72 h, resistant to chloroquine and atovaquone.
Setting [15] is: 72 h, multidrug resistant strain.
[16] abbreviates: 72 h, chloroquine sensitive strain; Table 1 of Example 4; read-out: IC50, nM, P. falciparum strain D6.
Where [17] appears, read: single oral doses in the range of 1 to 20 mg/kg.

Where two headings read alike, the source gives them in different places.

A word on the IC50: it is the point on the concentration scale where inhibition reaches its midpoint. The ED50 is the dose at which the effect has come halfway, by size or by number of responders. Read a high ED50 as weaker potency.

Description for P. falciparum strain D6: as §1
Description for P. falciparum strain Dd2: as §1

Consider `COc1cc2nc(C)c(-c3ccc(Oc4ccc(OC(F)(F)F)cc4)cc3)c(OC(C)=O)c2cc1Cl` [ELQ-370], for which, in data set [1], the “chemical stability to acid” value is listed as “chemically unstable to mildly acidic conditions” and the stability in methanol entry was “decomposes rapidly in methanol”.

As to `C=CCOC(=O)Oc1c(-c2ccc(Oc3ccc(OC(F)(F)F)cc3)cc2)c(C)nc2cc(OC)c(Cl)cc12` [ELQ-359, allyl (6-chloro-7-methoxy-2-methyl-3-(4-(4-(trifluoromethoxy)phenoxy)phenyl)quinolin-4-yl) carbonate], the minimal effective dose in data set [2] stood at 4 mg/kg. Also, in the data set on P. falciparum strain D6 (setting [10]), the IC50 amounted to 2.5 nM.

For `COc1cc2nc(C)c(-c3ccc(Oc4ccc(OC(F)(F)F)cc4)cc3)c(OC(=O)OCC3COC(C)(C)O3)c2cc1Cl` (centres unmarked) [ELQ-374, 6-chloro-7-methoxy-2-methyl-3-(4-(4-(trifluoromethoxy)phenoxy)phenyl)quinolin-4-yl ((2,2-dimethyl-1,3-dioxolan-4-yl)methyl) carbonate], the minimal effective dose in [2] was determined as 4 mg/kg. For the same compound, the IC50 with P. falciparum strain D6 (setting [10]) worked out at 2.7 nM.

On to `O=C1C(O)=C([C@H]2CC[C@H](c3ccc(Cl)cc3)CC2)C(=O)c2ccccc21` [Atovaquone, reference compound], for which the IC50 in data set [3] (setting [11]) is over 250 nM; in the data set with P. falciparum strain Dd2 (setting [12]), 0.2 nM; in the data set with P. falciparum strain D6 (setting [13]), 0.2 nM.

As for `COc1cc2nc(C)c(-c3ccc(Oc4ccc(OC(F)(F)F)cc4)cc3)c(OC(=O)C(C)(C)C)c2cc1Cl` [ELQ-357, 6-chloro-7-methoxy-2-methyl-3-(4-(4-(trifluoromethoxy)phenoxy)phenyl)quinolin-4-yl pivalate], the minimal effective dose in data set [2] was 4 mg/kg. Besides, the IC50 in the data set on P. falciparum strain D6 (setting [10]) is 3.5 nM.

Take `COc1cc2nc(C)c(-c3ccc(Oc4ccc(OC(F)(F)F)cc4)cc3)c(OC(=O)OCC3COC(=O)O3)c2cc1Cl` (centres unmarked) [ELQ-373, 6-chloro-7-methoxy-2 methyl-3-(4-(4-(trifluoromethoxy)phenoxy)phenyl)quinolin-4-yl ((2-oxo-1,3-dioxolan-4-yl)methyl) carbonate]: in data set [2], the minimal effective dose is 4 mg/kg. Besides, the IC50 with P. falciparum strain D6 (setting [10]) was 3.1 nM.

Regarding `COc1cc2nc(C)c(-c3ccc(Oc4ccc(OC(F)(F)F)cc4)cc3)c(OC(=O)c3ccccc3)c2cc1Cl` [ELQ-379, 6-chloro-7-methoxy-2-methyl-3-(4-(4-(trifluoromethoxy)phenoxy)phenyl)quinolin-4-yl benzoate], the IC50 with P. falciparum strain D6 (setting [10]) was determined as 2.5 nM.

Regarding `CCN(CC)CCCC(C)Nc1ccnc2cc(Cl)ccc12` (centres unmarked) [Chloroquine, reference compound], the IC50 in data set [3] (Plasmodium falciparum, TM90, 72 h) is 98 nM; in the data set on P. falciparum strain Dd2 (Plasmodium falciparum, DD2, 72 h), 137 nM; with P. falciparum strain D6 (Plasmodium falciparum, D6, 72 h, read-out: IC50, nM, P. falciparum strain D6) it was 10 nM.

For `COc1cc2nc(C)c(-c3ccc(Oc4ccc(OC(F)(F)F)cc4)cc3)c(OC(=O)C(C)C)c2cc1Cl` [ELQ-375, 6-chloro-7-methoxy-2-methyl-3-(4-(4-(trifluoromethoxy)phenoxy)phenyl)quinolin-4-yl isobutyrate], the minimal effective dose in data set [2] is 4 mg/kg. Also, the IC50 in the data set on P. falciparum strain D6 (setting [10]) was determined as 8.2 nM.

As for `COCCOC(=O)Oc1c(-c2ccc(Oc3ccc(OC(F)(F)F)cc3)cc2)c(C)nc2cc(OC)c(Cl)cc12` [ELQ-354, 6-chloro-7-methoxy-2-methyl-3-(4-(4-(trifluoromethoxy)phenoxy)phenyl)quinolin-4-yl(2-methoxyethyl) carbonate], the minimal effective dose in data set [2] was determined as 3 mg/kg. In addition, in the data set on P. falciparum strain D6 (setting [10]), the IC50 is 3 nM.

Take `CCOC(=O)Oc1c(-c2ccc(Oc3ccc(OC(F)(F)F)cc3)cc2)c(C)nc2cc(OC)c(Cl)cc12` [ELQ-337, 6-chloro-7-methoxy-2-methyl-3-(4-(4-(trifluoromethoxy)phenoxy)phenyl)quinolin-4-yl ethyl carbonate]: in [1] (50/50 mixtures of methanol and water at pH 3 and 8 overnight), the chemical stability result is “chemically stable”. Also, in [2], the minimal effective dose was 3 mg/kg. For the same compound, the “animals in which single dose failed” value in data set [2] (1 mg/kg, on Day 12) is reported as 4/4. Further, the “single dose cures (SDC), animals cured” value in [2] (doses as low as 3 mg/kg) was 4/4. Further, in data set [4], the oral bioavailability entry is given as “enhanced over ELQ-300”. The oral bioavailability entry in data set [5] is “enhanced over ELQ-300”. Further, the “IC50 values against all test strains” value in the data set on P. falciparum is “low to sub-nanomolar range”. For the same compound, in the data set with P. yoelii, the ED50 came out at 0.02 mg/kg/day, the ED90 came to 0.05 mg/kg/day and the ED99 turned out to be 0.075 mg/kg/day. The IC50 in the data set with P. falciparum strain D6 (setting [10]) turned out to be 2.5 nM.

`COc1cc2nc(C)c(-c3ccc(Oc4ccc(OC(F)(F)F)cc4)cc3)c(OCOC(=O)OC(C)C)c2cc1Cl` [ELQ-330]: the “lowest fully protective single-dose cure (SDC)” value in [2] is recorded as 5 mg/kg. Further, the IC50 was 47 nM in data set [3] (setting [14]), 38 nM with P. falciparum strain Dd2 (setting [15]) and 62 nM in the data set on P. falciparum strain D6 (setting [16]).

Regarding `CCOC(=O)OC(C)Oc1c(-c2ccc(Oc3ccc(OC(F)(F)F)cc3)cc2)c(C)nc2cc(OC)c(Cl)cc12` (centres unmarked) [ELQ-387], the IC50 came out at 231 nM in data set [3] (setting [14]), 141 nM in the data set on P. falciparum strain Dd2 (setting [15]) and 326 nM in the data set with P. falciparum strain D6 (setting [16]).

For the compound `CCOC(=O)OCOc1c(-c2ccc(Oc3ccc(OC(F)(F)F)cc3)cc2)c(C)nc2cc(OC)c(Cl)cc12` [ELQ-331], the “lowest fully protective single-dose cure (SDC)” value in data set [2] is on record as 2.5 mg/kg. In addition, the IC50 in data set [3] (setting [14]) came out at 4 nM; in the data set on P. falciparum strain D6 (setting [16]) it was 6 nM. Further, the t1/2 in data set [6] came out at 37.7 min.

Turning to `COc1cc2nc(C)c(-c3ccc(Oc4ccc(OC(F)(F)F)cc4)cc3)c(OC(=O)N(C)C)c2cc1Cl` [ELQ-301], the stability to metabolism result in data set [7] is recorded as “stable to metabolism”. Moreover, the “in vivo efficacy compared to ELQ-300” value in data set [8] is given as “inferior in vivo efficacy”.

For `COc1cc2nc(C)c(-c3ccc(Oc4ccc(OC(F)(F)F)cc4)cc3)c(OC(=O)OC3CCS(=O)(=O)C3)c2cc1Cl` (centres unmarked) [ELQ-355, 6-chloro-7-methoxy-2-methyl-3-(4-(4-(trifluoromethoxy)phenoxy)phenyl)quinolin-4-yl (1,1-dioxidotetrahydrothiophen-3-yl) carbonate], the minimal effective dose in data set [2] is 4 mg/kg. The IC50 with P. falciparum strain D6 (setting [10]) is 3.9 nM.

On to `COC(=O)Oc1c(-c2ccc(Oc3ccc(OC(F)(F)F)cc3)cc2)c(C)nc2cc(OC)c(Cl)cc12` [ELQ-336, 6-chloro-7-methoxy-2-methyl-3-(4-(4-(trifluoromethoxy)phenoxy)phenyl)quinolin-4-yl methyl carbonate], for which, in data set [2], the minimal effective dose is 4 mg/kg. The IC50 in the data set on P. falciparum strain D6 (setting [10]) was determined as 2.5 nM.

Take `COc1cc2nc(C)c(-c3ccc(Oc4ccc(OC(F)(F)F)cc4)cc3)c(OC(=O)OC(C)(C)C)c2cc1Cl` [ELQ-358, tert-butyl (6-chloro-7-methoxy-2-methyl-3-(4-(4-(trifluoromethoxy)phenoxy)phenyl)quinolin-4-yl) carbonate]: in data set [2], the minimal effective dose was over 4 mg/kg. Besides, the IC50 in the data set with P. falciparum strain D6 (setting [10]) was found to be 6 nM.

Regarding `COc1cc2[nH]c(C)c(-c3ccc(Oc4ccc(OC(F)(F)F)cc4)cc3)c(=O)c2cc1Cl` [ELQ-300, reference compound], the minimal effective dose in [2] was over 20 mg/kg. In addition, in data set [2] (setting [17]), the parasitemia suppression entry is “suppressed parasitemia completely”. Besides, in [2] (setting [17]), the recrudescence entry is reported as “recrudescence occurred within two weeks of dosing”. The “inhibition of cytochrome bc1 complex” value in [9] is recorded as “sub-nanomolar”. Moreover, the IC50 in data set [3] (setting [11]) came out at 2 nM; with P. falciparum strain Dd2 (setting [12]), 6 nM; in the data set with P. falciparum strain D6 (setting [13]) it was 6 nM; with P. falciparum strain D6 (setting [10]), 3.1 nM.

These data come from patent publication US10584098B2, “Quinolone-3-diarylethers” (OREGON HEALTH & SCIENCE UNIVERSITY, priority 2015, dated 2020).
